According to BindingDB's records for patent US10654860 (Bristol Myers Squibb, 2020):

Molecular target: Rho-associated protein kinase 2 (Homo sapiens, UniProt O75116)
Test: In Vitro Assay
Protocol: The effectiveness of compounds of the present invention as ROCK inhibitors can be determined in a 30 μL, assay containing 20 mM HEPES, pH 7.5, 20 mM MgCl2, 0.015% Brij-35, 4 mM DTT, 5 μM ATP and 1.5 μM peptide substrate (FITC-AHA-AKRRRLSSLRA-OH). Compounds were dissolved in DMSO so that the final concentration of DMSO was <2%, and the reaction was initiated with Rho kinase variants. After incubation, the reaction was terminated by the addition of EDTA and the phosphorylated and non-phosphorylated peptides separated using a LABCHIP 3000 Reader (Caliper Life Sciences). […] Compounds were tested in dose-response format, and the inhibition of kinase activity was calculated at each concentration of compound.

Chain of Rho-associated protein kinase 2 (O75116 whole entry): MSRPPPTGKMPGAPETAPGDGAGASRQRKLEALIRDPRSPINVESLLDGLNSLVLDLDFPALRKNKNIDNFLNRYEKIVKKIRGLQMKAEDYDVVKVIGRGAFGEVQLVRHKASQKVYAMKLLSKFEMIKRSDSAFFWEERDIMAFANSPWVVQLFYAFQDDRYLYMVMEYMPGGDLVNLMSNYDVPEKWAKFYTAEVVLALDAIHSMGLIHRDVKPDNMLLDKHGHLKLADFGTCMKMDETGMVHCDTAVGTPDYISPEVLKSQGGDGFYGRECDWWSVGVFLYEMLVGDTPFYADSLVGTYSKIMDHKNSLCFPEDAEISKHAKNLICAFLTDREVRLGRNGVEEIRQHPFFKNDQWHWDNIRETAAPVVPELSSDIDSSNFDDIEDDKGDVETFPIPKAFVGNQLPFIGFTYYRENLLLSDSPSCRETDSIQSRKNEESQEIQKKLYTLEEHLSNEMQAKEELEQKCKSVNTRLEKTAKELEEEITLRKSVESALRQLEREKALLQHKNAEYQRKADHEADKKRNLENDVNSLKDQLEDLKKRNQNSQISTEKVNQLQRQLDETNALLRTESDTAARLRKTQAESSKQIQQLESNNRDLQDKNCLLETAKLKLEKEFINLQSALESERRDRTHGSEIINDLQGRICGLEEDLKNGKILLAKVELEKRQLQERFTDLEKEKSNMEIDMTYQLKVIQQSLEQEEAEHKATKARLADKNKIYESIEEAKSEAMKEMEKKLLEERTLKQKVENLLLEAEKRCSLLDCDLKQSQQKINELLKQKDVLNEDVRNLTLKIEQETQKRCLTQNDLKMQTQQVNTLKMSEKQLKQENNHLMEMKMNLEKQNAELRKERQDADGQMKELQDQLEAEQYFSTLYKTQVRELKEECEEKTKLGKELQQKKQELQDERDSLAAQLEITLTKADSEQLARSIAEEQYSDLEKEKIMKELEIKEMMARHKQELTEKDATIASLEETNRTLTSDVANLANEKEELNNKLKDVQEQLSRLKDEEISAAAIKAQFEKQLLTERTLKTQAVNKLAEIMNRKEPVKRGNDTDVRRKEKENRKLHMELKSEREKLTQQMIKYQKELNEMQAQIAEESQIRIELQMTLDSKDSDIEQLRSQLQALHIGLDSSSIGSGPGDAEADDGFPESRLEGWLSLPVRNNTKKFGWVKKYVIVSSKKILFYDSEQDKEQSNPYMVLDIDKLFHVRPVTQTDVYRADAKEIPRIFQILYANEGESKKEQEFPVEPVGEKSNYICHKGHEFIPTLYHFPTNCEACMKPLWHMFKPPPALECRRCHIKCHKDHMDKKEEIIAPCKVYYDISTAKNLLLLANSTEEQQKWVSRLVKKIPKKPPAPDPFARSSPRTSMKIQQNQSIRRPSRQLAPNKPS

- IC50: < 10 nM
SMILES: N[C@H](CCc1ccccc1)C(=O)Nc1ccc2c(c1)CCc1n[nH]cc1-2 [US10654860, Example 4]
